The subject of one experiment is A549. Kind of experiment: Cytotoxicity against human A549 cells after 72 hrs by MTT assay. It counts as functional, cell-based.
The test system of another experiment is B16. Kind of experiment: Cytotoxicity against mouse B16 cells after 72 hrs by MTT assay. It counts as functional, cell-based. For orientation: Formazan colour is commonly taken as a measure of viable cells.
Setting [1] is: Homo sapiens, A549, 72 h, read-out: IC50.
Where [2] appears, read: Mus musculus, B16, 72 h, read-out: IC50.

By IC50 is commonly meant the concentration at which inhibition is half-maximal. With `CC1(C)CC(=O)C2=C(C1)OC(C)(C)[C@@H]1CC[C@]3(C)Oc4ccc(Br)cc4C=C3[C@H]21` (relative stereo), the values for the IC50 in the experiment on A549 (setting [1]) and in the experiment on B16 (setting [2]) were 6.13 µM and 12.5 µM, respectively.
For the molecule `CC1(C)OC2=C(C(=O)c3ccccc32)[C@H]2C3=Cc4cc(Cl)ccc4O[C@@]3(C)CC[C@H]21`, the IC50 is 26.3 µM with A549 (setting [1]) and “Not Active” with B16 (b16).
As for `CC1(C)OC2=C(C(=O)CCC2)[C@H]2C3=Cc4ccccc4O[C@@]3(C)CC[C@H]21` (relative stereo), the IC50 in the experiment with A549 (setting [1]) is 20.8 µM; in the experiment with B16 (setting [2]) it was 12.8 µM.
For `CC1(C)Oc2c(c(=O)oc3ccccc23)[C@H]2C3=Cc4cc(Cl)ccc4O[C@@]3(C)CC[C@H]21` (relative stereo) the same measures were 0.26 µM and 20.4 µM.
On to `Cn1c2c(c(=O)n(C)c1=O)[C@H]1C3=Cc4cc(Cl)ccc4O[C@@]3(C)CC[C@H]1C(C)(C)O2` (relative stereo), for which the half-inhibitory concentration (IC50) result in the experiment on A549 (a549) is “Not Active”; in the experiment on B16 (setting [2]), 7.69 µM.
As to `CC1(C)Oc2c(c(=O)oc3ccccc23)[C@H]2C3=Cc4ccccc4O[C@@]3(C)CC[C@H]21` (relative stereo), the IC50 stood at 9.58 µM in the experiment with A549 (setting [1]) and 35.7 µM in the experiment with B16 (setting [2]).
As for `CC1(C)OC2=C(C(=O)CCC2)[C@H]2C3=Cc4cc(Cl)ccc4O[C@@]3(C)CC[C@H]21` (relative stereo), the IC50 with A549 (setting [1]) was 4.01 µM; with B16 (setting [2]), 2 µM.
Consider `CC1(C)OC2=C(C(=O)CCC2)[C@H]2C3=Cc4cc(Br)ccc4O[C@@]3(C)CC[C@H]21` (relative stereo), for which the figures for the 50% inhibitory concentration (IC50) with A549 (setting [1]) and in the experiment with B16 (setting [2]) were 19.7 µM and 16.5 µM, respectively.
With `Cn1c2c(c(=O)n(C)c1=O)[C@H]1C3=Cc4ccccc4O[C@@]3(C)CC[C@H]1C(C)(C)O2` (relative stereo), the figures for the half-inhibitory concentration (IC50) with A549 (setting [1]) and in the experiment with B16 (setting [2]) were 3.8 µM and 8.47 µM, respectively.
Regarding `COc1cccc2c1C(=O)c1c(O)c3c(c(O)c1C2=O)C[C@@](O)(C(=O)CO)C[C@@H]3O[C@H]1C[C@H](N)[C@H](O)[C@H](C)O1` [DOXORUBICIN], the IC50 in the experiment with A549 (setting [1]) and in the experiment with B16 (setting [2]) was less than 0.1 µM each time.
With `CC1(C)CC(=O)C2=C(C1)OC(C)(C)[C@@H]1CC[C@]3(C)Oc4ccccc4C=C3[C@H]21` (relative stereo), the IC50 in the experiment on A549 (setting [1]) turned out to be 8.64 µM; with B16 (setting [2]), 10.2 µM.

Source of the values: ChEMBL document CHEMBL1955855, “A domino Knoevenagel hetero-Diels-Alder reaction for the synthesis of polycyclic chromene derivatives and evaluation of their cytotoxicity” (Bioorg Med Chem Lett, 2012).
